# Values of other authors as cited in patent publication US20240082296A1, “TREATMENT OF MUSCLE ATROPHY USING DEXTRAN SULFATE” (TX MEDIC AB, priority 2020, published 2024).
# Tested on: mouse model of muscle atrophy
# Conditions: after 2 weeks of treatment; cited from earlier work
substance,measurement,value
"recombinant HGF: recombinant hepatocyte growth factor, a naturally occurring neuroprotective and myogenic growth factor",increase in muscle mass,18%
